Measured values published in the NIST ThermoML archive (doi:10.1021/je030151s).
± gives the expanded uncertainty stated by the source.

Test: xn = mol fraction of the nth substance listed
Details: 101.3 kPa, Liquid; for viscosity: Capillary tube (Ostwald / Ubbelohde) method

CCC(=O)CC [pentan-3-one] + CCc1ccccc1
Details | mass density, 293.15 K [kg/m3] | mass density, 303.15 K [kg/m3] | mass density, 313.15 K [kg/m3] | speed of sound, 293.15 K [m/s] | speed of sound, 303.15 K [m/s] | speed of sound, 313.15 K [m/s] | viscosity, 293.15 K [mPa·s] | viscosity, 303.15 K [mPa·s] | viscosity, 313.15 K [mPa·s]
x1 = 0.0911 | 867 ± 1.2 | 855.9 ± 1.2 | 848.3 ± 1.3 | 1328.5 ± 3.5 | 1290.2 ± 3.4 | 1254.5 ± 3.4 | 0.6538 ± 0.0082 | 0.5795 ± 0.0074 | 0.5116 ± 0.0068
x1 = 0.2055 | 865.5 ± 1.2 | 855.1 ± 1.2 | 847 ± 1.3 | 1319 ± 3.5 | 1281.9 ± 3.4 | 1246.6 ± 3.4 | 0.625 ± 0.0079 | 0.5539 ± 0.0072 | 0.4881 ± 0.0065
x1 = 0.3176 | 863.2 ± 1.2 | 852.8 ± 1.2 | 844.5 ± 1.3 | 1309.6 ± 3.4 | 1272.2 ± 3.4 | 1237.2 ± 3.4 | 0.6015 ± 0.0077 | 0.5281 ± 0.0069 | 0.4642 ± 0.0063
x1 = 0.4296 | 860.1 ± 1.2 | 849.9 ± 1.2 | 840.8 ± 1.3 | 1298 ± 3.4 | 1264.5 ± 3.4 | 1227.2 ± 3.3 | 0.5789 ± 0.0074 | 0.5046 ± 0.0067 | 0.4429 ± 0.0061
x1 = 0.5331 | 854.8 ± 1.2 | 845.3 ± 1.2 | 836.6 ± 1.3 | 1287 ± 3.4 | 1252.3 ± 3.4 | 1217.5 ± 3.3 | 0.5574 ± 0.0072 | 0.486 ± 0.0065 | 0.4247 ± 0.0059
x1 = 0.6387 | 848.5 ± 1.1 | 839.6 ± 1.2 | 830.6 ± 1.2 | 1275 ± 3.4 | 1242 ± 3.4 | 1206 ± 3.3 | 0.534 ± 0.007 | 0.469 ± 0.0063 | 0.411 ± 0.0058
x1 = 0.7378 | 842.5 ± 1.1 | 833.4 ± 1.2 | 824.5 ± 1.2 | 1263 ± 3.4 | 1230 ± 3.3 | 1195 ± 3.3 | 0.516 ± 0.0068 | 0.454 ± 0.0062 | 0.399 ± 0.0057
x1 = 0.8322 | 835 ± 1.1 | 826.8 ± 1.2 | 817.5 ± 1.2 | 1251 ± 3.4 | 1217.5 ± 3.3 | 1184.4 ± 3.3 | 0.4975 ± 0.0066 | 0.441 ± 0.0061 | 0.388 ± 0.0056
x1 = 0.9245 | 826 ± 1.1 | 818 ± 1.2 | 808 ± 1.2 | 1240.3 ± 3.4 | 1206.6 ± 3.3 | 1172.5 ± 3.3 | 0.4811 ± 0.0065 | 0.4309 ± 0.006 | 0.38 ± 0.0055
x1 = 1 | 814.4 ± 1.1 | 804.7 ± 1.1 | 794.9 ± 1.2 | 1230.7 ± 3.3 | 1197.8 ± 3.3 | 1159.1 ± 3.3 | 0.4714 ± 0.0064 | 0.4231 ± 0.0059 | 0.3799 ± 0.0055

CCC(=O)CC [pentan-3-one] + Cc1ccccc1C
Details | mass density, 293.15 K [kg/m3] | mass density, 303.15 K [kg/m3] | mass density, 313.15 K [kg/m3] | speed of sound, 293.15 K [m/s] | speed of sound, 303.15 K [m/s] | speed of sound, 313.15 K [m/s] | viscosity, 293.15 K [mPa·s] | viscosity, 303.15 K [mPa·s] | viscosity, 313.15 K [mPa·s]
x1 = 0.0955 | 878 ± 1.2 | 870.5 ± 1.2 | 862.4 ± 1.3 | 1357 ± 3.5 | 1328 ± 3.5 | 1287.6 ± 3.4 | 0.7649 ± 0.0094 | 0.677 ± 0.0084 | 0.5965 ± 0.0076
x1 = 0.2073 | 875 ± 1.2 | 868.5 ± 1.2 | 859.4 ± 1.3 | 1345.1 ± 3.5 | 1315 ± 3.5 | 1277 ± 3.4 | 0.7182 ± 0.0089 | 0.638 ± 0.008 | 0.565 ± 0.0073
x1 = 0.3191 | 871.1 ± 1.2 | 863.1 ± 1.2 | 855 ± 1.3 | 1333.5 ± 3.5 | 1303 ± 3.4 | 1262 ± 3.4 | 0.675 ± 0.0084 | 0.6003 ± 0.0077 | 0.533 ± 0.007
x1 = 0.4298 | 865.3 ± 1.2 | 857.3 ± 1.2 | 848.8 ± 1.3 | 1318.8 ± 3.5 | 1287 ± 3.4 | 1251 ± 3.4 | 0.636 ± 0.008 | 0.562 ± 0.0073 | 0.502 ± 0.0067
x1 = 0.5338 | 859.5 ± 1.2 | 850.5 ± 1.2 | 842.5 ± 1.3 | 1306 ± 3.4 | 1272 ± 3.4 | 1238 ± 3.4 | 0.6001 ± 0.0076 | 0.5271 ± 0.0069 | 0.474 ± 0.0064
x1 = 0.6363 | 852.1 ± 1.1 | 844 ± 1.2 | 835.5 ± 1.3 | 1292.2 ± 3.4 | 1255.8 ± 3.4 | 1224 ± 3.3 | 0.568 ± 0.0073 | 0.497 ± 0.0066 | 0.447 ± 0.0061
x1 = 0.7329 | 845 ± 1.1 | 837.3 ± 1.2 | 827.9 ± 1.2 | 1279.4 ± 3.4 | 1245 ± 3.4 | 1208.3 ± 3.3 | 0.537 ± 0.007 | 0.4719 ± 0.0064 | 0.424 ± 0.0059
x1 = 0.8283 | 836.8 ± 1.1 | 829.1 ± 1.2 | 819.9 ± 1.2 | 1266.2 ± 3.4 | 1229 ± 3.3 | 1194 ± 3.3 | 0.51 ± 0.0067 | 0.4481 ± 0.0061 | 0.4034 ± 0.0057
x1 = 0.9242 | 826.3 ± 1.1 | 817 ± 1.2 | 808.2 ± 1.2 | 1250.9 ± 3.4 | 1213 ± 3.3 | 1179.3 ± 3.3 | 0.4882 ± 0.0065 | 0.4333 ± 0.006 | 0.3872 ± 0.0056
x1 = 1 | 814.4 ± 1.1 | 804.7 ± 1.1 | 794.9 ± 1.2 | 1230.7 ± 3.3 | 1197.8 ± 3.3 | 1159.1 ± 3.3 | 0.4714 ± 0.0064 | 0.4231 ± 0.0059 | 0.3799 ± 0.0055
